{"source": "patent US20090018106A1", "about": "“INTRAVENOUS FORMULATIONS OF PYRIDOXAL 5'- PHOSPHATE AND METHOD OF PREPARATION” (Medicure International Inc., priority 2005, published 2009)", "key": {"[1]": {"experiment": "Single intravenous dose escalation of P5P, plasma pharmacokinetics (Examples Two and Three)", "type": "in vivo, human", "conditions": "for Cmax / MRT / Tmax / half-life / AUC(0-inf) / AUC(0-t): both sexes, human; for Cmax / MRT / Tmax / half-life: plasma, iv; for AUC(0-t): read-out: AUC(0-t)", "description": "A phase one clinical trial was conducted to compare the pharmacokinetics of intravenously administered P5P and orally administered P5P. The trial was a single dose escalation study.\nFor intravenous administration, P5P was administered by bolus injection under fasting conditions. The following doses of P5P were studied: 1, 5, 10, and 20 mg/kg. 6 subjects were assigned to each dosage group.\nP5P, pyridoxal, and 4-pyridoxic acid were evaluated in both plasma and urine over a 24 hour interval following either intravenous or oral dosing. The results are set out below in Tables 2 and 3.\nMethodology—This was a single-blind, single-dose escalation, non-randomized, 4-phase, non-crossover study designed to evaluate the safety and […] subjects under fasting conditions and to estimate pharmacokinetic parameters of P5P.\nSubjects were assigned to one of the four groups (six subjects per group) under fasting conditions.\nConcentrations of pyridoxal-5′-phosphate (P5P) were measured from the plasma samples collected over a 24-bour interval after dosing in each phase.\nPharmacokinetic parameters: AUCt, AUCinf, Cmax, Tmax, Kel, Thalf, Vd, CL, MRT and F were estimated based on pyridoxal-5′-phosphate (P5P) plasma levels for each subject that was in the final data set.\nThe test product used was a P5P Intravenous Injectable Solution, 50 mg/ml, which was prepared in accordance with the methods of Example 1 (CanAm BioResearch Inc. Canada); Lot No.: LP1459: Manufacturing Date: 12/03. A single 1, 5, 10 or 20 mg/kg dose was given by intravenous injection. The duration of treatment was a single dose.\nSecondary Endpoint—Pharmacokinetic (PK) Parameters—Plasma concentrations of pyridoxal-5′-phosphate (P5P) were measured by a validated analytical method. Based on these concentration levels, AUCt, AUCinf, Cmax, Tmax, Kel, Thalf, Vd, CL, MRT and F were estimated.\nStatistical Methods—Descriptive statistics were calculated by treatments for the estimated pharmacokinetic parameters."}, "[2]": {"experiment": "Once daily intravenous 10 mg/kg P5P for four days, urinary excretion and renal clearance (Example Four)", "type": "in vivo, human", "conditions": "P5P 10 mg/kg iv once daily, 4 days, PA, mean; for CL renal: human, urine and plasma, iv, 10 mg/kg, read-out: CLR, renal clearance (converted)", "description": "Data sets analyzed—Six (6) healthy, adult non-smokers were administered intravenously a single daily dose of 10 mg/kb of P5P for four consecutive days and completed the study. In accordance with the study protocol, data from all subjects who completed the study were used for pharmacokinetic and statistical analysis.\nAnalytical Methods—Plasma and urine samples were used for analysis. P5P, PAL, and PA levels were determined by HPLC/FLD. The quantitation level was 5 ng/mL for plasma and 100 ng/mL for urine. The sample analysis calibration curve range was 5 ng/mL to 5000 ng/mL for plasma and 100 ng/mL to 50,000 ng/mL for urine.\nTotal and Renal Clearance—Total body clearance was estimated for P5P and was calculated as Dose/AUC0-inf."}, "[3]": {"conditions": "Group 1, P5P 1 mg/kg single iv, plasma PA, mean"}, "[4]": {"conditions": "Group 2, P5P 5 mg/kg single iv, plasma PA, mean"}, "[5]": {"conditions": "Group 3, P5P 10 mg/kg single iv, plasma PA, mean"}, "[6]": {"conditions": "Group 4, P5P 20 mg/kg single iv, plasma PA, mean"}, "[7]": {"conditions": "1 mg/kg, Group 1, P5P 1 mg/kg single iv, plasma PA, mean"}, "[8]": {"conditions": "5 mg/kg, Group 2, P5P 5 mg/kg single iv, plasma PA, mean"}, "[9]": {"conditions": "10 mg/kg, Group 3, P5P 10 mg/kg single iv, plasma PA, mean"}, "[10]": {"conditions": "20 mg/kg, Group 4, P5P 20 mg/kg single iv, plasma PA, mean"}, "[11]": {"conditions": "ln(pK Parameter) = b0 + b1 * ln (Dose)"}, "[12]": {"conditions": "ln(pK Parameter) = b0 + b1 * ln (Dose), single iv 1-20 mg/kg"}}, "note": "Like-named read-outs stand apart in the source and are kept apart here.", "data": [{"smiles": "Cc1ncc(CO)c(C(=O)O)c1O", "note": "[PA, 4-pyridoxic acid]", "values": [{"measurement": "Kel", "setting": "[1]; [3]", "value": 0.311, "unit": "h⁻¹"}, {"measurement": "Kel", "setting": "[1]; [4]", "value": 0.332, "unit": "h⁻¹"}, {"measurement": "Kel", "setting": "[1]; [5]", "value": 0.268, "unit": "h⁻¹"}, {"measurement": "Kel", "setting": "[1]; [6]", "value": 0.216, "unit": "h⁻¹"}, {"measurement": "Cmax", "setting": "[1]; [7]", "value": 419, "unit": "ng/mL"}, {"measurement": "MRT", "setting": "[1]; [7]", "value": 4.5, "unit": "h"}, {"measurement": "Tmax", "setting": "[1]; [7]", "value": 1.04, "unit": "h"}, {"measurement": "half-life", "setting": "[1]; 1 mg/kg, Group 1, P5P 1 mg/kg single iv, plasma PA, mean, read-out: T½ (converted)", "value": 2.82, "unit": "h"}, {"measurement": "Cmax", "setting": "[1]; [8]", "value": 2450, "unit": "ng/mL"}, {"measurement": "MRT", "setting": "[1]; [8]", "value": 3.48, "unit": "h"}, {"measurement": "Tmax", "setting": "[1]; [8]", "value": 0.71, "unit": "h"}, {"measurement": "half-life", "setting": "[1]; 5 mg/kg, Group 2, P5P 5 mg/kg single iv, plasma PA, mean, read-out: T½ (converted)", "value": 2.12, "unit": "h"}, {"measurement": "Cmax", "setting": "[1]; [9]", "value": 5360, "unit": "ng/mL"}, {"measurement": "MRT", "setting": "[1]; [9]", "value": 3.85, "unit": "h"}, {"measurement": "Tmax", "setting": "[1]; [9]", "value": 0.74, "unit": "h"}, {"measurement": "half-life", "setting": "[1]; 10 mg/kg, Group 3, P5P 10 mg/kg single iv, plasma PA, mean, read-out: T½ (converted)", "value": 2.73, "unit": "h"}, {"measurement": "Cmax", "setting": "[1]; [10]", "value": 16100, "unit": "ng/mL"}, {"measurement": "MRT", "setting": "[1]; [10]", "value": 4.13, "unit": "h"}, {"measurement": "Tmax", "setting": "[1]; [10]", "value": 0.73, "unit": "h"}, {"measurement": "half-life", "setting": "[1]; 20 mg/kg, Group 4, P5P 20 mg/kg single iv, plasma PA, mean, read-out: T½ (converted)", "value": 3.48, "unit": "h"}, {"measurement": "half-life", "setting": "[1]; over all single iv doses of P5P (1-20 mg/kg), read-out: apparent elimination half-life (converted)", "value": "2 to 3.5", "unit": "h"}, {"measurement": "AUC(0-inf)", "setting": "[1]; [3]", "value": 1990, "unit": "ng·h/mL"}, {"measurement": "AUC(0-t)", "setting": "[1]; [3]", "value": 1500, "unit": "ng·h/mL"}, {"measurement": "AUC(0-inf)", "setting": "[1]; [4]", "value": 10700, "unit": "ng·h/mL"}, {"measurement": "AUC(0-t)", "setting": "[1]; [4]", "value": 10500, "unit": "ng·h/mL"}, {"measurement": "AUC(0-inf)", "setting": "[1]; [5]", "value": 23000, "unit": "ng·h/mL"}, {"measurement": "AUC(0-t)", "setting": "[1]; [5]", "value": 22700, "unit": "ng·h/mL"}, {"measurement": "AUC(0-inf)", "setting": "[1]; [6]", "value": 53000, "unit": "ng·h/mL"}, {"measurement": "AUC(0-t)", "setting": "[1]; [6]", "value": 51900, "unit": "ng·h/mL"}, {"measurement": "Significance of b1, lnAUCi", "setting": "[1]; [11]", "value": "<0.0001"}, {"measurement": "Significance of b1, lnCmax", "setting": "[1]; [11]", "value": "<0.0001"}, {"measurement": "Significance of b1, lnMRT", "setting": "[1]; [11]", "value": 0.7995}, {"measurement": "Significance of b1, lnThalf", "setting": "[1]; [11]", "value": 0.2604}, {"measurement": "Coef. for Dose (b1), lnAUCi", "setting": "[1]; [12]", "value": 1.10}, {"measurement": "Coef. for Dose (b1), lnCmax", "setting": "[1]; [12]", "value": 1.20}, {"measurement": "Coef. for Dose (b1), lnMRT", "setting": "[1]; [12]", "value": "−0.01"}, {"measurement": "Coef. for Dose (b1), lnThalf", "setting": "[1]; [12]", "value": 0.08}, {"measurement": "Intercept (b0), lnAUCi", "setting": "[1]; [12]", "value": 0.62}, {"measurement": "Intercept (b0), lnCmax", "setting": "[1]; [12]", "value": "−0.98"}, {"measurement": "Intercept (b0), lnMRT", "setting": "[1]; [12]", "value": 1.37}, {"measurement": "Intercept (b0), lnThalf", "setting": "[1]; [12]", "value": 0.82}, {"measurement": "dose relationship of plasma AUCinf and Cmax", "setting": "[1]; single iv P5P 1-20 mg/kg", "value": "increase more than expected based on dose"}, {"measurement": "Ae0-t, total amount excreted in urine", "setting": "[2]; Day 1", "value": 172950596, "unit": "ng"}, {"measurement": "Ae0-t, total amount excreted in urine", "setting": "[2]; Day 4", "value": 225885311, "unit": "ng"}, {"measurement": "CL renal", "setting": "[2]; Day 1", "value": 144, "unit": "mL/min"}, {"measurement": "CL renal", "setting": "[2]; Day 4", "value": 179, "unit": "mL/min"}]}]}
